Reference: PMC4644822, “Extracellular α-Galactosidase from Trichoderma sp. (WF-3): Optimization of Enzyme Production and Biochemical Characterization” (Biotechnology Research International, 2015)

System: T1, extracellular α-galactosidase from Trichoderma sp. (WF-3)
T1 construct: gene agl1; native secreted enzyme, unpurified culture filtrate
Assay: p-nitrophenol release at […] nm, Lineweaver-Burk plot
Type: biochemical
Conditions: culture filtrate (unpurified); standard assay 0.05 M sodium acetate pH 5.0, 50 °C, 10 min; 0.05-4.5 mM substrate; read-out: apparent K m

Structure (SMILES): O=[N+]([O-])c1ccc(O[C@H]2O[C@H](CO)[C@H](O)[C@H](O)[C@H]2O)cc1 [pNPGal, p-nitrophenyl-α-D-galactopyranoside]
- Km: 500 µM
